Reference: patent US11440907B1 (Merck Patent GmbH, priority 2018, dated 2022)

What was measured:
Type in all cases: cell-based
[1] = system: XBP1(u)-luciferase splicing reporter in HepG2 hepatoma cells; assay: HepG2 XBP1 reporter assay (XBP1(u)-Luc); details: Homo sapiens; for IC50: 6 h, six hours after addition of compound; for EC50: 6 hours after compound addition, Table 3, read-out: XBP1-luc HepG2 1 EC50
[2] = system: NCI-H929 (Multiple myeloma cells); assay: Cell viability (ATPLite) in NCI-H929; details: Homo sapiens, 96 hours
Procedure: Cells were removed from liquid nitrogen storage, thawed and expanded in appropriate growth media. Once expanded, cells were seeded in 384-well tissue culture treated plates at 500 cells per well. After 24 hours, cells were treated for either 0 hours or treated for 96 hours with a testing compound (at the concentrations of 100 nM and 2 uM). At the end of either 0 hours or 96 hours, cell status was analyzed using ATPLite (Perkin Elmer) to assess the biological response of cells to the testing compound.

[3] = system: β-catenin-TCF-mediated reporter transcription activity in Colo 205 cells; assay: Colo 205 reporter assay (TCF/LEF promoter-driven firefly luciferase); details: Homo sapiens; Colo 205 TCF/LEF luciferase reporter, 5 hours after compound addition, 384 well; read-out: Colo205 IC50

Row | SMILES | IC50 [1] [nM] | IC50 [2] [nM] | EC50 [1] [nM] | IC50 [3] [nM]
1 | Cc1cc(N2CCCOC[C@@H]2c2ccc(CS(C)(=O)=O)cc2OC(F)(F)F)nc(N)n1 [D-41] | < 600 | < 1000 | – | –
2 | Cc1cc(N2CCCOC[C@@H]2c2cc(O)c(OC(F)F)cc2Cl)nc(N)n1 [D-57] | < 600 | < 1000 | – | –
3 | COc1cc(N2CCCOCC2c2cc(C)nc(N)n2)c(Cl)cc1OCC(=O)Nc1ccccc1 [D-39] | 600 to 2000 | 1000 to 10000 | – | –
4 | Cc1cc(N2CCCOC[C@@H]2c2cc(O)c(CS(C)(=O)=O)cc2Cl)nc(N)n1 [D-86] | < 600 | < 1000 | – | –
5 | CCOc1cc([C@H]2COCCCN2c2cc(C)nc(N)n2)c(Cl)cc1OC [D-34] | < 600 | < 1000 | – | –
6 | Cc1cc(N2CCCOC[C@H]2c2ccc(OS(C)(=O)=O)cc2OC(F)(F)F)nc(N)n1 [D-158] | ≥ 5000 | ≥ 25000 | – | –
7 | CCOC(=O)[C@@]1(C)CNc2cc(Cl)c([C@H]3COCCCN3c3cc(C)nc(N)n3)cc2O1 [D-37] | 600 to 2000 | ≥ 25000 | – | –
8 | CCC(=O)Nc1cc(Cl)c(C2COCCCN2c2cc(C)nc(N)n2)cc1C [D-12] | 600 to 2000 | 1000 to 10000 | – | –
9 | Cc1cc(N2CCCOC[C@H]2c2cc3c(cc2Cl)OCC(C)(C)CO3)nc(N)n1 [D-154] | ≥ 5000 | ≥ 25000 | – | –
10 | Cc1cc(N2CCCOC[C@H]2c2cc(N3CC[C@H](O)C3)ccc2Cl)nc(N)n1 [D-63] | < 600 | < 1000 | – | –
11 | Cc1cc(N2CCCOC[C@@H]2c2cc(N)c(C(F)(F)F)cc2Cl)nc(N)n1 [D-10] | < 600 | < 1000 | – | –
12 | COc1cc(F)c(F)cc1[C@H]1COCCCN1c1cc(C)nc(N)n1 [D-4] | < 600 | ≥ 25000 | – | –
13 | Cc1cc(N2CCCOC[C@@H]2c2ccc(NC(=O)C(F)F)cc2Cl)nc(N)n1 [D-8] | 600 to 2000 | ≥ 25000 | – | –
14 | Cc1cc(N2CCCOCC2c2cc(OC(F)F)c(Cl)cc2Cl)nc(N)n1 [D-11] | 2000 to 5000 | 10000 to 25000 | – | –
15 | Cc1cc(N2CCCOCC2c2ccc(CS(C)(=O)=O)[nH]c2=O)nc(N)n1 [D-146] | ≥ 5000 | ≥ 25000 | – | –
16 | Cc1cc(N2CCCOC[C@@H]2c2cc(O)c(C(=O)N(C)C)cc2Cl)nc(N)n1 [D-117] | < 600 | < 1000 | – | –
17 | Cc1cc(N2CCCOC[C@@H]2c2ccc(CS(C)(=O)=O)cc2OC(F)F)nc(N)n1 [D-22] | < 600 | < 1000 | – | –
18 | Cc1cc(N2CCCOC[C@H]2c2ccc(S(=O)(=O)C3CCC3)cc2Cl)nc(N)n1 [D-141] | ≥ 5000 | 1000 to 10000 | – | –
19 | Cc1cc(N2CCCOC[C@@H]2c2cc3c(cc2Cl)NCCC3)nc(N)n1 [D-9] | < 600 | < 1000 | – | –
20 | Cc1cc(N2CCCOCC2c2ccc(O)cc2C(F)(F)F)nc(N)n1 [D-111] | < 600 | < 1000 | – | –
21 | CCc1cc(N2CCCOCC2c2cc(O)c(NC(C)=O)cc2Cl)nc(N)n1 [D-110] | < 600 | < 1000 | – | –
22 | Cc1cc(N2CCCOC[C@H]2c2cc3c(cc2Cl)NCCC3)nc(N)n1 [D-143] | ≥ 5000 | ≥ 25000 | – | –
23 | Cc1cc(N2CCCOC[C@@H]2c2cc(O)c(OC(F)(F)F)cc2Cl)nc(N)n1 [D-119] | < 600 | < 1000 | – | –
24 | Cc1cc(N2CCCOC[C@H]2c2ccc(NC(=O)C(F)F)cc2Cl)nc(N)n1 [D-142] | ≥ 5000 | < 1000 | – | –
25 | Cc1cc(N2CCCOC[C@@H]2c2cc3c(cc2Cl)CCN3C)nc(N)n1 [D-28] | < 600 | < 1000 | – | –
26 | Cc1cc(N2CCCOC[C@@H]2c2cc(N3CC[C@H](O)C3)ccc2Cl)nc(N)n1 [D-64] | 600 to 2000 | 1000 to 10000 | – | –

Row | SMILES | IC50 [1] [nM] | IC50 [2] [nM] | EC50 [1] [nM] | IC50 [3] [nM]
27 | Cc1cc(N2CCCOCC2c2cc(O)c(CS(C)(=O)=O)cc2Cl)nc(N)n1 [D-65] | < 600 | < 1000 | – | –
28 | Cc1cc(N2CCCOC[C@@H]2c2ncc(CS(C)(=O)=O)cc2Cl)nc(N)n1 [D-81] | < 600 | < 1000 | – | –
29 | Cc1cc(N2CCCOC[C@@H]2c2ccc(N)cc2Cl)nc(N)n1 [D-30] | < 600 | < 1000 | – | –
30 | COc1ccc([C@H]2COCCCN2c2cc(C)nc(N)n2)c(Cl)c1 [D-80] | < 600 | < 1000 | – | –
31 | COc1cc(C2COCCCN2c2cc(C)nc(N)n2)c(Cl)cc1OCCCC#N [D-18] | 600 to 2000 | 1000 to 10000 | – | –
32 | Cc1cc(N2CCCOCC2c2ccc(CS(C)(=O)=O)nc2OC(F)F)nc(N)n1 [D-54] | < 600 | 1000 to 10000 | – | –
33 | Cc1cc(N2CCCOCC2c2cnc(CS(C)(=O)=O)cc2Cl)nc(N)n1 [D-49] | < 600 | < 1000 | – | –
34 | CNc1cc(Cl)c([C@@H]2COCCCN2c2cc(C)nc(N)n2)cc1C [D-25] | < 600 | ≥ 25000 | – | –
35 | COc1cc(S(C)(=O)=O)ccc1[C@@H]1CCCCCN1c1cc(C)nc(N)n1 (single isomer, unassigned) [I-98, 4-[2-(2-methoxy-4-methylsulfonyl-phenyl)azepan-1-yl]-6-methyl-pyrimidin-2-amine] | – | – | < 600 | 300 to 1000
36 | Cc1cc(N2CCCOC[C@@H]2c2ccc(NC3CC3)cc2Cl)nc(N)n1 [I-248, 4-[(3S)-3-[2-chloro-4-(cyclopropylamino)phenyl]-1,4-oxazepan-4-yl]-6-methyl-pyrimidin-2-amine] | – | – | < 600 | < 300
37 | Cc1cc(N2CCCOCC2c2ccc(NC(=O)C3(F)CCOC3)cc2Cl)nc(N)n1 (racemic) [I-279, (+/−)-N-(4-(4-(2-amino-6-methylpyrimidin-4-yl)-1,4-oxazepan-3-yl)-3-chlorophenyl)-3-fluorotetrahydrofuran-3-carboxamide] | – | – | < 600 | < 300
38 | Cc1cc(N2CCCOCC2c2ccc(OCC3(C)CCOC3)cc2Cl)nc(N)n1 (racemic) [I-229, (+/−)-4-[3-[2-chloro-4-[(3-methyltetrahydrofuran-3-yl)methoxy]phenyl]-1,4-oxazepan-4-yl]-6-methyl-pyrimidin-2-amine] | – | – | < 600 | 300 to 1000
39 | Cc1cc(N2CCCOCC2c2ccc(C(CO)CO)cc2Cl)nc(N)n1 (racemic) [I-236, (+/−)-2-(4-(4-(2-amino-6-methylpyrimidin-4-yl)-1,4-oxazepan-3-yl)-3-chlorophenyl)propane-1,3-diol] | – | – | < 600 | < 300
40 | Cc1cc(N2CCCOCC2c2ccc(N3CCCC3)cc2Cl)nc(N)n1 (racemic) [I-227, (+/−)-4-[3-(2-chloro-4-pyrrolidin-1-yl-phenyl)-1,4-oxazepan-4-yl]-6-methyl-pyrimidin-2-amine] | – | – | 600 to 2000 | 300 to 1000
41 | CC(=O)N(C)Cc1ccc(C2COCCCN2c2cc(C)nc(N)n2)c(Cl)c1 (racemic) [I-254, (+/−)-N-(4-(4-(2-amino-6-methylpyrimidin-4-yl)-1,4-oxazepan-3-yl)-3-chlorobenzyl)-N-methylacetamide] | – | – | < 600 | < 300
42 | Cc1cc(N2CCCCCC2c2ccccc2C)nc(N)n1 (racemic) [I-6, (+/−)-4-methyl-6-(2-(2-(methyl)phenyl)azepan-1-yl)pyrimidin-2-amine] | – | – | 2000 to 5000 | 300 to 1000
43 | CC(=O)Nc1cc(C2COCCCN2c2cc(C)nc(N)n2)c(Cl)cc1F (racemic) [I-85, N-[5-[4-(2-amino-6-methyl-pyrimidin-4-yl)-1,4-oxazepan-3-yl]-4-chloro-2-fluoro-phenyl]acetamide] | – | – | 600 to 2000 | 300 to 1000
44 | Cc1cc(N2CCCOC[C@@H]2c2ccc(N3CCN(C)CC3)cc2Cl)nc(N)n1 [I-275, (S)-4-[3-[2-chloro-4-(4-methylpiperazin-1-yl)phenyl]-1,4-oxazepan-4-yl]-6-methyl-pyrimidin-2-amine] | – | – | < 600 | 300 to 1000
45 | Cc1cc(N2CCCOC[C@@H]2c2ccc(N3CC4(COC4)C3)cc2Cl)nc(N)n1 [I-259, 4-[(3S)-3-[2-chloro-4-(2-oxa-6-azaspiro[3.3]heptan-6-yl)phenyl]-1,4-oxazepan-4-yl]-6-methyl-pyrimidin-2-amine] | – | – | < 600 | < 300
46 | Cc1cc(N2CCCOC[C@@H]2c2ccc(NC3(C)COC3)cc2Cl)nc(N)n1 [I-266, 4-[(3S)-3-[2-chloro-4-[(3-methyloxetan-3-yl)amino]phenyl]-1,4-oxazepan-4-yl]-6-methyl-pyrimidin-2-amine] | – | – | < 600 | < 300
47 | Cc1cc(N2CCCOCC2c2cc(NC(=O)CC(C)(C)O)ccc2Cl)nc(N)n1 (racemic) [I-251, (+/−)-N-[3-[4-(2-amino-6-methyl-pyrimidin-4-yl)-1,4-oxazepan-3-yl]-4-chloro-phenyl]-3-hydroxy-3-methyl-butanamide] | – | – | 600 to 2000 | < 300
48 | Cc1cc(N2CCCOCC2c2ccc(NC(=O)[C@@H]3CCOC3)cc2Cl)nc(N)n1 (mixture of isomers) [I-280, (3R)—N-(4-(4-(2-amino-6-methylpyrimidin-4-yl)-1,4-oxazepan-yl)-3-chlorophenyl)-tetrahydrofuran-3-carboxamide] | – | – | < 600 | 300 to 1000
49 | Cc1cc(N2CCCOC[C@@H]2c2ccc(N3CC4(CCO4)C3)cc2Cl)nc(N)n1 [I-260, 4-[(3S)-3-[2-chloro-4-(1-oxa-6-azaspiro[3.3]heptan-6-yl)phenyl]-1,4-oxazepan-4-yl]-6-methyl-pyrimidin-2-amine] | – | – | < 600 | < 300
50 | Cc1cc(N2CCCOC[C@@H]2c2cc(NC3COC3)ccc2Cl)nc(N)n1 [I-258, 4-[(3S)-3-[2-chloro-5-(oxetan-3-ylamino)phenyl]-1,4-oxazepan-4-yl]-6-methyl-pyrimidin-2-amine] | – | – | < 600 | < 300
51 | Cc1cc(N2CCCOC[C@@H]2c2ccc(N3CC(C)(O)C3)cc2Cl)nc(N)n1 [I-261, (S)-1-(4-(4-(2-amino-6-methylpyrimidin-4-yl)-1,4-oxazepan-3-yl)-3-chlorophenyl)-3-methylazetidin-3-ol] | – | – | < 600 | < 300
